We go through 17 molecules from patent US12497637B1, “Stabilization of tryptamines by denaturing enzymes, optimizing ionization states, and controlling confounding variables” (Convergent Health Sciences LLC, priority 2025, dated 2025).

Data set [1] can be described thus: Spontaneous dephosphorylation of phosphoryloxytryptamines in 100 millimolar phosphate buffers, 85 degrees Celsius, one hour, HPLC at 220 nanometers.
Another data set deals with phosphatase enzyme. Kind of data set: Colorimetric assay with a para-nitrophenyl phosphate substrate for residual phosphatase enzyme activity. Format: biochemical, Psilocybe cubensis. The note with it: relative to the water control. An excerpt:
The denaturation of relevant phosphatase enzymes may be assessed, for example, by performing a colorimetric assay with a para-nitrophenyl phosphate substrate. Para-nitrophenyl phosphate comprises a phosphorylated aromatic, which is chemically similar to the phosphorylated indole of a phosphoryloxytryptamine. Colorimetric assays performed with a para-nitrophenyl phosphate substrate therefore provide suitable methods to assess […] that are relevant to this disclosure.
(§1) 20 milliliters of 6 molar guanidinium chloride in distilled, deionized water and buffered to a pH of 6.0 with 50 millimolar phosphate buffer is added to each of three opaque 50-milliliter polypropylene centrifuge tubes. 20 milliliters of 8 molar urea in distilled, deionized water and buffered to a pH of 6.0 with 50 millimolar phosphate buffer is added to each of three opaque 50-milliliter polypropylene centrifuge tubes. 20 milliliters of 4 molar ammonium sulfate in distilled, deionized water and buffered to a pH of 6.0 with 50 millimolar MES buffer is added to each of three opaque 50-milliliter polypropylene centrifuge tubes. 20 milliliters of 2 percent sodium dodecyl sulfate (w/v) in distilled, deionized water and buffered to a pH of 6.0 with 50 millimolar phosphate buffer is added to each of three opaque 50-milliliter polypropylene centrifuge tubes. 20 milliliters of 1 percent Triton X-100 (v/v) in distilled, deionized water and buffered to a pH of 6.0 with 50 millimolar phosphate buffer is added to each of three opaque 50-milliliter polypropylene centrifuge tubes. 20 milliliters of 2 percent octyl glucoside (w/v) in distilled, deionized water and buffered to a pH of 6.0 with 50 millimolar phosphate buffer is added to each of three opaque 50-milliliter polypropylene centrifuge tubes. 20 milliliters of distilled, deionized water is buffered to a pH of 6.0 with 50 millimolar phosphate buffer and added to each of three opaque 50-milliliter polypropylene centrifuge tubes. Each of the centrifuge tubes is placed on ice.
(§2) The stipes of three freshly-harvested Psilocybe cubensis fruiting bodies are each cut into seven sections of approximately 1 gram each, weighed, and immediately placed into one of the polypropylene tubes such that a section of each stipe is placed in each of the guanidinium, urea, ammonium sulfate, sodium dodecyl sulfate, Triton X-100, and octyl glucoside solutions as well as the water control. Each of the samples is homogenized and then sonicated within the polypropylene tubes. The polypropylene tubes are then loaded onto an orbital shaker in a cold room at 4 degrees Celsius and mixed at 450 revolutions per minute for four hours. After mixing, the samples are placed on ice.
(§3) The samples are centrifuged, and the supernatants are analyzed by HPLC as described in Example 1. The molecular weights of the analytes are determined by electrospray ionization mass spectroscopy (ESI-MS) operating in positive ion mode. The supernatants are also used for a colorimetric assay with a para-nitrophenyl phosphate substrate to identify residual phosphatase enzyme activity and for a colorimetric assay with a syringaldazine substrate to identify any residual laccase enzyme activity.

Another data set deals with laccase enzyme. Kind of data set: Colorimetric assay with a syringaldazine substrate for residual laccase enzyme activity. In kind it is biochemical, Psilocybe cubensis. Conditions: relative to the water control.
Excerpt: The denaturation of relevant laccase enzymes may be assessed, for example, by performing a colorimetric assay with a laccase enzyme substrate such as syringaldazine or 2,2′-azino-bis(3-ethylbenzothiazoline-6-sulfonate) (ABTS). Syringaldazine comprises an aromatic structure with pendant hydroxyl groups, which is chemically similar to the indole of a hydroxytryptamine, and ABTS comprises a benzothiazoline, which is chemically similar to the indole of tryptamines generally. Colorimetric assays performed with a syringaldazine or ABTS substrate therefore provide suitable methods to assess laccase activity that are relevant to this disclosure.
as §1, §2, §3

For data set [2] the following is noted: cited from earlier work.
The conditions of data set [3]: cited from earlier work. The source holds these as a separate data set.
[4] abbreviates: pH of 3.0 relative to pH of 2.0.
The mark [5] stands for this setting: pH of 6.0 relative to pH of 7.0.
Where [6] appears, read: pH of 2.0 relative to pH of 3.0.
[7] abbreviates: pH of 7.0 relative to pH of 6.0.

As to `NCCc1c[nH]c2cccc(OP(=O)(O)O)c12` [norbaeocystin, 2-(4-phosphonooxy-1H-indol-3-yl)ethylazanium], the “absorbance detected for the phosphoryloxytryptamine” value in data set [1] (setting [4]) and in data set [1] (setting [5]) was “Greater absorbance” in each case.

Take `CNCCc1c[nH]c2cccc(O)c12` [norpsilocin, 3-[2-(methylamino)ethyl]-1H-indol-4-ol]: the “absorbance detected for the hydroxytryptamine (dephosphorylation product)” value in data set [1] (setting [6]) and in data set [1] (setting [7]) was “greater absorbance” each time. `CCCCCCCCCCCCOS(=O)(=O)[O-].[Na+]` [sodium dodecyl sulfate]: the “phosphatase enzyme activity in the colorimetric assay” value (from here on “phosphatase enzyme activity”) in the data set on phosphatase enzyme is “significantly less phosphatase enzyme activity”. Also, the “laccase enzyme activity in the colorimetric assay” value (from here on “laccase enzyme activity”) in the data set on laccase enzyme is “significantly less laccase enzyme activity”. On to `NC(N)=O` [urea], for which, in the data set on phosphatase enzyme, the “phosphatase enzyme activity” value was “significantly less phosphatase enzyme activity”. For the same molecule, the “laccase enzyme activity” value in the data set with laccase enzyme is reported as “significantly less laccase enzyme activity”. Taken in the same sequence, the figures for “polyethylene glycol 4-(2,4,4-trimethylpent-2-yl)phenyl ether [Triton X-100]” were “significantly less phosphatase enzyme activity” and “significantly less laccase enzyme activity”.

As to `N.N.O=S(=O)(O)O` [ammonium sulfate], the “phosphatase enzyme activity” value in the data set with phosphatase enzyme was “significantly less phosphatase enzyme activity”. Further, the “laccase enzyme activity” value in the data set on laccase enzyme is listed as “significantly less laccase enzyme activity”. On to `Cl.N=C(N)N` [guanidinium, guanidinium chloride], for which, in the data set on phosphatase enzyme, the “phosphatase enzyme activity” value is “significantly less phosphatase enzyme activity”. The “laccase enzyme activity” value in the data set on laccase enzyme is recorded as “significantly less laccase enzyme activity”.

On to `O=C(O)Cc1c[nH]c2ccccc12` [Indole-3-acetic acid, indole-3-acetic acid], for which the solubility in water result in data set [2] was “insoluble in water”.

As for `CN(C)CCc1c[nH]c2cccc(OP(=O)(O)O)c12` [psilocybin], the “pKa of the azanium of psilocybin” value in data set [3] (conjugate acid of the amino) is recorded as “about 10.4”. Besides, the “pKa of the dihydrogen phosphate of psilocybin (lowest pKa)” value in data set [3] (first phosphate pKa) is listed as “about 1.3”.

Consider Chitin, for which, in data set [2], the solubility in water result was “insoluble in water”.

In the case of `OCCc1c[nH]c2ccccc12` [tryptophol], the solubility in water result in data set [2] was “insoluble in water”.

`NCCc1c[nH]c2cccc(O)c12` [4-HT, 3-(2-aminoethyl)-1H-indol-4-ol]: the “absorbance detected for the hydroxytryptamine (dephosphorylation product)” value in data set [1] (setting [6]) and in data set [1] (setting [7]) was “greater absorbance” in each case. `CNCCc1c[nH]c2cccc(OP(=O)(O)O)c12` [baeocystin, [2-(4-phosphonooxy-1H-indol-3-yl)ethyl]-methylazanium]: the “absorbance detected for the phosphoryloxytryptamine” value in data set [1] (setting [4]) and in data set [1] (setting [5]) was “Greater absorbance” each time. `CN(C)CCc1c[nH]c2cccc(O)c12` [psilocin, 3-[2-(dimethylamino)ethyl]-1H-indol-4-ol]: the “absorbance detected for the hydroxytryptamine (dephosphorylation product)” value in data set [1] (setting [6]) and in data set [1] (setting [7]) was “greater absorbance” in each case. As for `CCCCCCCCO[C@@H]1O[C@H](CO)[C@@H](O)[C@H](O)[C@H]1O` [octyl glucoside, octyl β-D-glucopyranoside], in the data set on phosphatase enzyme, the “phosphatase enzyme activity” value is recorded as “significantly less phosphatase enzyme activity”. Also, the “laccase enzyme activity” value in the data set with laccase enzyme is on record as “significantly less laccase enzyme activity”. As to `C[N+](C)(C)CCc1c[nH]c2cccc(O)c12` [4-hydroxy-TMT, [2-(4-hydroxy-1H-indol-3-yl)ethyl]-trimethylazanium], the “absorbance detected for the hydroxytryptamine (dephosphorylation product)” value in data set [1] (setting [6]) and in data set [1] (setting [7]) was “greater absorbance” in each case.

In the case of `C[N+](C)(C)CCc1c[nH]c2cccc(OP(=O)(O)O)c12` [aeruginascin, [2-(4-phosphonooxy-1H-indol-3-yl)ethyl]-trimethylazanium], the “absorbance detected for the phosphoryloxytryptamine” value in data set [1] (setting [4]) and in data set [1] (setting [5]) was “Greater absorbance” each time.
